In patent US6821769B2, “IniB, iniA and iniC genes of mycobacteria and methods of use” (priority 1998, dated 2004):

Legend:
iniB promoter = assay type: cell-based, BCG; details: for Induction of the iniB promoter at 24 hours: BCG containing the iniB/lacZ construct; for Induction of the iniB promoter at 24 hours / iniA gene induction / effect on iniA transcription: FIG. 4; for iniA gene induction / effect on iniA transcription: amino acids; for iniB promoter induction: 213 base pair iniB promoter in lacz reporter construct
iniA [1] = test: Northern blot of iniA induction after antibiotic treatment; assay type: cell-based; details: total RNA from M. tuberculosis cultured with or without antibiotics; FIG. 1
Description: Autoradiographs of a Northern blot containing RNA from M. tuberculosis cultures treated either with no antibiotics; isoniazid 0.01 μg/ml; isoniazid 0.1 μg/ml; isoniazid 1 μg/ml; ethambutol 5 μg/ml; streptomycin 5 μg/ml; and rifampin 5 μg/ml. The blots were hybridized first with an iniA DNA probe (top) to examine iniA induction; the blot was then stripped and re-hybridized with a 16S probe (bottom) to confirm equal RNA loading.
Mycobacterial cultures were grown to mid log phase in Middlebrook 7H9 media supplemented with OADC, 0.05% Tween 80, and cyclohexamide (18) (for some experiments antibiotics were added for the last 18 hours), pelleted, resuspended in chloroform/methanol 3:1, and vortexed for 60 seconds or until the formation of an interface. RNA was extracted with five volumes of Triazole (Life Technologies, Gaithersburg, Md.), the aqueous layer precipitated in isopropanol, redissolved in 4M GTC and extracted a second time with Triazole.
Five μg of each RNA sample were analyzed by northern blot with Northern Max kits (Ambion, Austin, Tex.) in a 1% denaturing agarose gel, probed with inserts of differentially expressed plasmids labeled by random priming with [α^32P] dCTP, and visualized by autoradiography.

asd = assay type: cell-based, M. tuberculosis strain Erdman; details: RT PCR; isoniazid added for the last 18 hours; FIG. 2A
iniA [2] = assay type: cell-based, M. tuberculosis strain Erdman; details: RT PCR; isoniazid added for the last 18 hours; FIG. 2A

Structure (SMILES)	Induction of the iniB promoter at 24 hours (iniB promoter)	iniB promoter induction (iniB promoter; FIG. 3)	iniA induction (Northern blot) (iniA [1])	other results
C[C@H](O)[C@@H](N)C(=O)O [D-threonine]	comparable to that of isoniazid and Unisyn	–	–	iniA gene induction / effect on iniA transcription (iniB promoter): induced
C[C@@H](O)[C@H](N)C(=O)O [L-threonine]	did not cause induction	–	–	iniA gene induction / effect on iniA transcription (iniB promoter): minimal effect
N[C@@H]1CON=C1O [cycloserine]	–	induced	–	–
CC[C@@H](CO)NCCN[C@@H](CC)CO [ethambutol]	–	induced	strongly induced	–
NCC(=O)O [gylcine]	Modest induction	–	–	–
NNC(=O)c1ccncc1 [isoniazid]	–	induced	strongly induced	asd repression (asd): 17 fold; iniA induction by densitometry (iniA [2]): 70 fold
CO[C@H]1/C=C/O[C@@]2(C)Oc3c(C)c(O)c4c(O)c(c(/C=N/N5CCN(C)CC5)c(O)c4c3C2=O)NC(=O)/C(C)=C\C=C\[C@H](C)[C@H](O)[C@@H](C)[C@@H](O)[C@@H](C)[C@H](OC(C)=O)[C@@H]1C [rifampin]	–	–	not	Reversal of iniB promoter induction by co-administration (iniB promoter; co-administration with inducing antibiotic, FIG. 3): can be reversed
[H]/N=C(/N)N[C@H]1[C@H](O)[C@@H](O)[C@H](O[C@@H]2O[C@@H](C)[C@](O)(C=O)[C@H]2O[C@@H]2O[C@@H](CO)[C@H](O)[C@@H](O)[C@@H]2NC)[C@@H](N/C(N)=N\[H])[C@@H]1O [streptomycin]	–	–	not	–
